The values below are quoted from earlier work in patent US20260015582A1, “METHODS OF T CELL DIFFERENTIATION AND COMPOSITIONS THEREOF” (THE CHILDREN'S MEDICAL CENTER CORPORATION, priority 2022, published 2026).

Data set [1] addresses T1, class III isoenzyme SIRT1 (Homo sapiens, UniProt Q96EB6).
T1 sequence (Q96EB6 1-747): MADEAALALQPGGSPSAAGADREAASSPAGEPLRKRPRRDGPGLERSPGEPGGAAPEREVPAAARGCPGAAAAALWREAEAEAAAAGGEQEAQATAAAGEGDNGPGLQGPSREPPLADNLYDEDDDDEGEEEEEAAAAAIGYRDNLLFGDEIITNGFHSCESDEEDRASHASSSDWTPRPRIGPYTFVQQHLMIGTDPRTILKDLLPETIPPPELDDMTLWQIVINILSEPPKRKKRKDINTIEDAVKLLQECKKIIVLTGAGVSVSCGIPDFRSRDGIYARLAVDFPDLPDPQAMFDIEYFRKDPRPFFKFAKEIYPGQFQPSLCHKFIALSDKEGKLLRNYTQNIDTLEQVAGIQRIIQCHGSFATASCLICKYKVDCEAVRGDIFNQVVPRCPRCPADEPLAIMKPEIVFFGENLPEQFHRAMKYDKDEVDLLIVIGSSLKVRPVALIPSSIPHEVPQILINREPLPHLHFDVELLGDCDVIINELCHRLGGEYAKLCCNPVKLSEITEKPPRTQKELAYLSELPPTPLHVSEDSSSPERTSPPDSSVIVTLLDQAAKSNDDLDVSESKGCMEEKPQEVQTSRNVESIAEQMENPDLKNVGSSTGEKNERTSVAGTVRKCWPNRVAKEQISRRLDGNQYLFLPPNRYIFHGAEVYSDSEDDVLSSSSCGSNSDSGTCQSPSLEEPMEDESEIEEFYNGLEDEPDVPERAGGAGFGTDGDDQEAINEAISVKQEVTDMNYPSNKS

Data set [2] addresses T2, JMJD2E (Homo sapiens, UniProt B2RXH2).
T2 sequence (B2RXH2 1-506): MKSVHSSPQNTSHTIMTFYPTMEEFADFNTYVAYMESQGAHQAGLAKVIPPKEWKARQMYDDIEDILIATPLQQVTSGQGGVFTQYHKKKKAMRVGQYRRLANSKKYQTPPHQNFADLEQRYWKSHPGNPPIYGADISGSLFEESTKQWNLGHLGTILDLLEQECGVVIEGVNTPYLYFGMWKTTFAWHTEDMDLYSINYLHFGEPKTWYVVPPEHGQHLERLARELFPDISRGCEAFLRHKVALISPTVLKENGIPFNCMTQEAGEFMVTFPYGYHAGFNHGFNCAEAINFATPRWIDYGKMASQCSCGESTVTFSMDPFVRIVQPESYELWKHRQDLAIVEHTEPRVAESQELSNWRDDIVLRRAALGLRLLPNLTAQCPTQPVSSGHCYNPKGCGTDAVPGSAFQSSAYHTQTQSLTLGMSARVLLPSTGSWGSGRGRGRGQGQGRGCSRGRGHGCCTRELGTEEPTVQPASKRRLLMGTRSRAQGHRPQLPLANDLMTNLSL
Conditions: ECSD enzymatic assays.

Data set [3] relates to Lys20-specific PRSET7.
The target in data set [4] is T3, DIM5 (Neurospora crassa, UniProt Q8X225).
T3 sequence (Q8X225 1-331): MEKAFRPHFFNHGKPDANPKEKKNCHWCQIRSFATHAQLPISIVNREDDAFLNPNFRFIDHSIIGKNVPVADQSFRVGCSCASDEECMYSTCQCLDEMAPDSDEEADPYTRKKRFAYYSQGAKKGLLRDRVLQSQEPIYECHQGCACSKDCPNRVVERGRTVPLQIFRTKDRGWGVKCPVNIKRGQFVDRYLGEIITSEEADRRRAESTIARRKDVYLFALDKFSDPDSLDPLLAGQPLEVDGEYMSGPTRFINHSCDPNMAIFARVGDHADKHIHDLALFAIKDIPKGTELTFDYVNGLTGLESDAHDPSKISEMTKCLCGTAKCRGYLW

For data set [5], the system named is Lys27-specific EZH2.
Data set [6] addresses HMT SU(VAR)3-9 (Drosophila melanogaster, UniProt P45975).
Data set [7] has as its target T4, Lys4-specific SET7/9 (Homo sapiens, UniProt Q8WTS6).
T4 sequence (Q8WTS6 1-366): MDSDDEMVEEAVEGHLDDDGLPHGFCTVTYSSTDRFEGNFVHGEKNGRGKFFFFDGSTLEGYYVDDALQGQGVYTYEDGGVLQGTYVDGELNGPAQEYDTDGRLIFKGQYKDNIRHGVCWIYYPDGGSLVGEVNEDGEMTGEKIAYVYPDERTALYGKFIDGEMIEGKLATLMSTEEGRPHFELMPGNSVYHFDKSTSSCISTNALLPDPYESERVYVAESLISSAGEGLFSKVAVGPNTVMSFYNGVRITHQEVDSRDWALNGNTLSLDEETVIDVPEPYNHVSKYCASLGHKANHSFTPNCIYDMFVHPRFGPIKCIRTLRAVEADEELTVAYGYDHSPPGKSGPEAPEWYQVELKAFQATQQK

For data set [8], the system named is G9a.
Data set [9] concerns G9a/GLP. The settings on record: SAM-competitive manner.

Sequence of HMT SU(VAR)3-9 (P45975 with tags, fused parts or gaps): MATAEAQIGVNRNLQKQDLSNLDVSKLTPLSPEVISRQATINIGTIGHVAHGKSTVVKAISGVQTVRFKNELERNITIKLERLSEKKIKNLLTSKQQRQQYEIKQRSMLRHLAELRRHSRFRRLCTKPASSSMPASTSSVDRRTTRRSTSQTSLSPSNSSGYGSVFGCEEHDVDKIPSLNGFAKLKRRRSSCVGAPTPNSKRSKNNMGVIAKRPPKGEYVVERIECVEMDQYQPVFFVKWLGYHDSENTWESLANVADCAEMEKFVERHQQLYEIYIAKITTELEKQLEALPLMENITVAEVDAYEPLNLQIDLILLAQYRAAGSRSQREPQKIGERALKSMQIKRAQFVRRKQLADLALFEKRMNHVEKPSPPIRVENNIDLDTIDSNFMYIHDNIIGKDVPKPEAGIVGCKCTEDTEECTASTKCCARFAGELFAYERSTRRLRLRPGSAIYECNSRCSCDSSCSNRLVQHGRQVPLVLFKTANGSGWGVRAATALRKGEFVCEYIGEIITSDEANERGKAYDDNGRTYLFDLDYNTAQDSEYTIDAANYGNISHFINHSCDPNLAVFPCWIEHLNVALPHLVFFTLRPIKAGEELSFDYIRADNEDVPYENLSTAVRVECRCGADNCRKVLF

In the case of `CCCCc1nc2cc(/C=C/C(=O)NO)ccc2n1CCN(CC)CC` [SB939, Pracinostat], the “activity against the class III isoenzyme SIRT1” value in data set [1] was “no activity”.

As for `COc1cc2c(NC3CCN(C)CC3)nc(N3CCCN(C)CC3)nc2cc1OCCOCCN(C)C` [UNC0321], in [2], the “selectivity over JMJD2E” value was greater than 1000 fold. For the same compound, the half-inhibitory concentration (IC50) in [2] (inactive) was greater than 40 µM.

For the compound `CN1C(=O)C23CC4([C@]56C[C@@]78SS[C@@](CO)(C(=O)N7[C@H]5Nc5ccccc56)N(C)C8=O)c5ccccc5NC4N2C(=O)[C@]1(CO)SS3` (stereo partly shown) [Chaetocin], the IC50 is greater than 90 µM in data set [3]; 3 µM in data set [4]; greater than 90 µM in [5]; 800 nM in data set [6]; greater than 90 µM in data set [7]; 2500 nM in [8].

Turning to `COc1ccc(C(=O)Oc2ccc(CCn3c(NC(=O)c4ccc(C(F)(F)F)cc4)nc4cc(C(=O)O)ccc43)cc2)cc1` [BIX-01338], the G9a/GLP effective conc. entry in data set [9] is listed as “G9a/GLP effective conc. = 15 μM”.
